This note sets out measurements from ChEMBL document CHEMBL5096149, “Recent Update on Targeting c-MYC G-Quadruplexes by Small Molecules for Anticancer Therapeutics” (J Med Chem, 2021).

The nature of series [1]: Cytotoxicity against human KMM-1 cells assessed as inhibition of cell viability incubated for 72 hrs by MTS assay. Format: functional, cell-based. To be noted: KMM-1, 72 h.
Series [2] deals with NCI-H929. Kind of series: Cytotoxicity against human NCI-H929 cells assessed as inhibition of cell viability incubated for 72 hrs by MTS assay. The series is classed as functional, cell-based. To be noted: NCI-H929, 72 h.
Series [3] concerns Quadruplex DNA. Description: Thermal stabilization of c-MYC G-quadruplex DNA (unknown origin) assessed as change in melting temperature at 1:4 ratio by circular dichroism spectroscopy. Format: nucleic-acid assay.
Series [4] in a line: Cytotoxicity against human JIM1 cells assessed as inhibition of cell viability incubated for 72 hrs by MTS assay. The series is classed as functional, cell-based. Particulars: JIM1, 72 h.
Series [5] relates to KMS-12-PE. Kind of series: Cytotoxicity against human KMS-12-PE cells assessed as inhibition of cell viability incubated for 72 hrs by MTS assay. The series is classed as functional, cell-based.
A short description of series [6]: Cytotoxicity against human HEK293T cells assessed as inhibition of cell viability incubated for 72 hrs by MTS assay. Format: toxicity, cell-based, HEK-293T.
Series [7] can be described thus: Cytotoxicity against human ARD cells assessed as inhibition of cell viability incubated for 72 hrs by MTS assay. The series is classed as functional, cell-based.
Series [8] in a line: Cytotoxicity against human KMS-27 cells assessed as inhibition of cell viability incubated for 72 hrs by MTS assay. To be noted: KMS-27, 72 h. Format: functional, cell-based.
The subject of series [9] is AMO1. Kind of series: Cytotoxicity against human AMO1 cells assessed as inhibition of cell viability incubated for 72 hrs by MTS assay. The series is classed as functional, cell-based. To be noted: AMO1, 72 h.
The subject of series [10] is Quadruplex DNA. Description: Binding affinity to c-MYC G-quadruplex DNA (unknown origin) assessed as association constant by fluorescence spectroscopy. Format: nucleic-acid assay.
In series [11] the test system is CA46. Description: Cytotoxicity against human CA46 cells assessed as inhibition of cell viability incubated for 72 hrs by MTS assay. The series is classed as functional, cell-based. Particulars: CA46, 72 h.
Series [12] concerns Quadruplex DNA. Description: Binding affinity to c-MYC G-quadruplex DNA (unknown origin) assessed as association rate constant by surface plasmon resonance analysis. The series is classed as nucleic-acid assay.
Series [13] can be described thus: Cytotoxicity against human Karpas-417 cells assessed as inhibition of cell viability incubated for 72 hrs by MTS assay. To be noted: Karpas-417, 72 h. The series is classed as functional, cell-based.
Series [14] in a line: Cytotoxicity against human OPM-1 cells assessed as inhibition of cell viability incubated for 72 hrs by MTS assay. Format: functional, cell-based. Particulars: OPM-1, 72 h.
For series [15], the system named is L-363. Kind of series: Cytotoxicity against human L-363 cells assessed as inhibition of cell viability incubated for 72 hrs by MTS assay. To be noted: L-363, 72 h. The series is classed as functional, cell-based.
Series [16] is described as follows: Cytotoxicity against human Fibroblast cells assessed as inhibition of cell viability incubated for 72 hrs by MTS assay. Format: toxicity, cell-based.
Series [17] has as its system HT-1080. Description: Antiproliferative activity against human HT-1080 cells assessed as inhibition of cell growth by celltiter-glo luminescent cell viability assay. Format: functional, cell-based.
For series [18], the system named is Quadruplex DNA. Kind of series: Thermal stabilization of c-MYC G-quadruplex DNA (unknown origin) assessed as change in melting temperature at 1:5 ratio by FRET melting assay. Format: nucleic-acid assay.
Series [19] relates to HeLa. Kind of series: Antiproliferative activity against human HeLa cells assessed as inhibition of cell growth by XTT assay. The series is classed as functional, cell-based.
Series [20] concerns A549. Kind of series: Antiproliferative activity against human A549 cells assessed as inhibition of cell growth by XTT assay. Format: functional, cell-based.
The nature of series [21]: Antiproliferative activity against human Kidney epithelial cells assessed as inhibition of cell growth by XTT assay. The series is classed as toxicity, cell-based.
Series [22] has as its system Quadruplex DNA. Kind of series: Binding affinity to c-MYC G-quadruplex DNA (unknown origin) assessed as association rate constant by isothermal titration calorimetry method. Format: nucleic-acid assay.
For series [23], the system named is MCF7. Description: Antiproliferative activity against human MCF7 cells assessed as inhibition of cell growth by XTT assay. The series is classed as functional, cell-based.
Series [24] deals with Quadruplex DNA. Kind of series: Binding affinity to human c-MYC G-quadruplex (Pu24T) DNA assessed as second order binding constant by fluorescence spectroscopy. The series is classed as nucleic-acid assay.
For series [25], the system named is Quadruplex DNA. Description: Binding affinity to human c-MYC G-quadruplex (Pu24T) DNA assessed as first order binding constant by isothermal titration calorimetry method. Format: nucleic-acid assay.
Series [26] deals with Quadruplex DNA. Description: Thermal stabilization of human c-MYC G-quadruplex (Pu24T) DNA assessed as change in melting temperature at 1:2 ratio by circular dichroism spectroscopy. Format: nucleic-acid assay.
The subject of series [27] is Quadruplex DNA. Description: Binding affinity to human c-MYC G-quadruplex (Pu24T) DNA assessed as first order binding constant by fluorescence spectroscopy. The series is classed as nucleic-acid assay.
Series [28] in a line: Cytotoxicity against human HEK cells assessed as inhibition of cell viability incubated for 48 hrs by MTT assay. The series is classed as functional, cell-based. To be noted: HEK293, 48 h.
Series [29] concerns Quadruplex DNA. Kind of series: Binding affinity to human c-MYC G-quadruplex (Pu24T) DNA assessed as second order binding constant by isothermal titration calorimetry method. The series is classed as nucleic-acid assay.
Series [30] deals with HeLa. Description: Cytotoxicity against human HeLa cells assessed as inhibition of cell viability incubated for 48 hrs by MTT assay. Format: functional, cell-based.

As for `Cc1oc2ccc(O)c(CN3CCCCCC3)c2c1C(=O)Nc1ccc(C(F)(F)F)cc1`, the IC50 in series [1] was 4.13 µM; in series [2], 4.89 µM; in series [4], 6.35 µM; in series [5], 5.3 µM; in [7] it was 5.75 µM; in [8], 5.06 µM. Also, the IC50 in series [9] was found to be 5.92 µM; in series [11], 9.2 µM; in series [13], 4.8 µM; in series [14], 6.48 µM; in [15] it was 3.4 µM. Also, in series [3], the ΔTm came out at 7.5 °C. Besides, the results for the IC50 at 72 h in series [6] and in [16] were 34 µM and 19.6 µM, respectively. The results for the Ka in [10] and in series [12] were 1.06 10^5/M and 7.14 10^5/M, respectively.

On to `CN(C)c1cccc2c(S(=O)(=O)N(Cc3cn(C(C)(C)C(=O)OC[C@H]4O[C@@H](n5cnc6c(=O)[nH]c(N)nc65)[C@@H]5OC(C)(C)O[C@@H]54)nn3)Cc3cn(C(C)(C)C(=O)OC[C@H]4O[C@@H](n5cnc6c(=O)[nH]c(N)nc65)[C@@H]5OC(C)(C)O[C@@H]54)nn3)cccc12`, for which, in series [10], the Ka is 4.8 10^7/M. Further, the IC50 in [17] was found to be 18.9 µM. Besides, the ΔTm in series [18] was found to be 12.6 °C.

As for `CN(C)CCCOc1cc(C(=O)NCc2cn(-c3cccc(NC(=O)C4CCCN4)c3)nn2)cc(C(=O)NCc2cn(-c3cccc(NC(=O)C4CCCN4)c3)nn2)c1` (stereo not drawn), the IC50 in series [19] is 8.3 µM; in series [20], 9.2 µM; in series [21], greater than 50 µM; in series [23], 3.8 µM. Further, the results for the Ka in series [10] and in series [22] were 5.55 10^5/M and 7 10^5/M, respectively. Moreover, the ΔTm in series [18] was 15 °C.

For `O=c1c(O)c(-c2ccc(O)c(O)c2)oc2cc(O)cc(O)c12` [QUERCETIN], the K in [24] is 1.2 10^5/M; in [25], 1.57 10^7/M; in series [27], 0.72 10^7/M; in series [29], 8.5 10^5/M. In addition, in [26], the ΔTm came out at 10.3 °C. The figures for the IC50 in series [28] and in series [30] were 0.12 µM and 4 µM, respectively.
